Measured values as given in patent US12594258B2, “Inhibitors of MHC-I Nef downmodulation for treating HIV” (priority 2019, dated 2026).

How the values were obtained:
[1] = system: HIV Nef
[2] = system: CEM-A2 cells; experiment: Lysotracker Red and Nef activity in CEM-A2 cells; type: cell-based, human; conditions: 1.25 nM
Procedure: Cells were treated with plecomacrolides at a density of 1×10^6 cells/mL for 24 hours, then treated with 100 nM LysoTracker Red DND-99 (Fisher, L7528) in PBS at a density of 1×10^6 cells/mL for 1 hour at 37° C., washed twice in PBS, and fixed in 2% PFA before flow cytometric analysis on a BioRad Ze5 flow cytometer.
To test this directly, CEM-A2 cells transduced with an adenoviral vector expressing Nef were used. This system has been used to study the formation of the AP-1:Nef:MHC-I complex under conditions where ammonium chloride prevents lysosomal degradation. Higher concentrations of CMA were required for reversal of Nef activity in CEM cells. […] This is functionally similar to 0.5 nM CMA treatment in CD4^+ T cells.

[3] = system: AP-1:Nef:MHC-I complex; experiment: GST-tagged MHC-I cytoplasmic tail pull down assay; type: binding
From the text: The His6- and GST-tagged AP-1 core, mouse AP1M1 (157-423) (referred as μ1-CTD), human Arf1 (17-181)-Q71L, human MHC-I (338-365)-NL4-3 Nef, HIV-1 NL4-3 Nef constructs and protein purification were previously described. For GST pull down assay, codon-optimized human MHC-I (338-365) was subcloned into pGST parallel2 vector using BamHI/Xhol sites, fused an N-terminal GST tag and a TEV cleavage site. PCR encoding HIV-1 Nef or SlVsmm Nef fused with GFP was subcloned into LIC 2BT vector (Macrolab), expressed as a TEV-cleavable N-terminal His6 tag and C-terminal uncleavable GFP tag.
GST tagged MHC-I tail was expressed in BL21 (DE3) star cells by induction at 20° C. overnight. The purification was carried out using glutathione-Sepharose 4B resin, the elution was then subjected to a HiLoad 16/60 Superdex 75 column in the buffer of 20 mM Tris pH 8, 150 mM NaCl, 0.1 mM TCEP.

[4] = system: HIV Nef; remark: listed apart in the source
[5] = system: AP-1:Nef:MHC-I complex; experiment: HLA-A2 coimmunoprecipitation in CEM-A2 cells expressing Nef; type: cell-based; conditions: 1.25 nM, compared to NH4Cl
Procedure: Immunoprecipitation of CEM cell lysates with BB7.2-conjugated beads was performed as previously described. Briefly, 25×10^6 CEM-A2 cells were transduced with Nef-expressing or control adenovirus. 48 hours post-infection, cells were counted and resuspended at a density of 1×10^6 cells/mL R10 supplemented with 35 mM NH4Cl, 1.25 nM CMA, or solvent control for 24 hours. Cells were pelleted, washed twice in PBS, and lysed in 1% digitonin lysis buffer (1% digitonin (Wako, 043-21371), 100 mM NaCl, 50 mM Tris, pH 7.0, 1 mM CaCl2, and 1 mM MgCl2) as previously described. 1% of the lysate was removed for input controls. […] After pulldown, resin was washed five times in 0.1% digitonin wash buffer, and proteins were eluted by incubating in 150 mM dithiothreitol (Invitrogen) for 30 minutes at 37° C. and analyzed by western blot.
HLA-A2 Coimmunoprecipitation. […] Then, 48 h post infection, cells were counted and resuspended at a density of 1×10^6 cells per milliliter R10 supplemented with 35 mM NH4Cl, 1.25 nM CMA, or solvent control for 24 h. […] After pulldown, resin was washed five times in 0.1% digitonin wash buffer, and proteins were eluted by incubating in 150 mM dithiothreitol (DTT) for 30 min at 37° C. and analyzed by Western blot.

[6] = system: primary CD4+ T cells; experiment: MTT and flow cytometric viability assays in primary CD4+ T cells; type: cell-based, human
Procedure: CD4^+ T cells were plated at a density of 1×10^5 cells in 200 μL R10-50 in flat-bottom 96-well plates 4 days post-stimulation with PHA. Cells were exposed to titrations of plecomacrolides or solvent controls for 72 hours in culture, at which point viability was assessed relative to solvent by MTT assay in experimental duplicates. Equal volumes of cell culture medium containing CD4^+ T cells were pelleted in 96-well round-bottom plates and incubated in 4.5 mg/mL MTT (Fisher, M6494) in R10 with no Phenol Red at 37° C. until the purple formazan signal was clearly visible. The absorbance of cell pellets resuspended in DMSO was measured at 595 nm on a Molecular Devices Emax precision microplate reader and compared a standard curve of known viable cell numbers to ensure the experimental samples fell within the linear range of the assay.

C/C=C/[C@H]1O[C@@](O)([C@@H](C)[C@H](O)[C@H](C)[C@H]2OC(=O)/C(OC)=C/C(C)=C/[C@@H](C)[C@@H](O)[C@@H](CC)[C@@H](O)[C@H](C)C/C(C)=C/C=C/[C@@H]2OC)C[C@@H](O[C@H]2C[C@@H](O)[C@H](OC(N)=O)[C@@H](C)O2)[C@@H]1C [CMA, concanamycin A]
restoration of CD4 to the cell surface of Nef-expressing cells ([1]; 2.5 nM and 0.5 nM): […] | restoration of cell-surface MHC-I in Nef-expressing cells ([1]; 2.5 nM and 0.5 nM): […] | Nef-mediated degradation of HLA-A2 and CD4 (Western blot) ([1]; high dose (2.5 nM)): inhibited Nef-mediated degradation of both HLA-A2 and CD4 | degradation of CD4 (Western blot) ([1]; low dose (0.5 nM)): did not prevent degradation of CD4 | degradation of MHC-I in Nef-expressing cells (Western blot) ([1]; low dose (0.5 nM)): MHC-I was not degraded in Nef-expressing cells | Nef inhibition versus intracellular acidification [2]: inhibited Nef without significantly altering intracellular acidification | pulldown of NL4-3 Nef, SIV Nef or AP-1 μ1-CTD by GST-tagged MHC-I cytoplasmic tail [3]: did not alter pulldown | MHC-I expression (BB7.2 and Bw4/Bw6) in cells infected with primary isolate 454Gag-GFP ([4]; 0.25 nM, 24 hours): […] | suppression of Nef activity ([4]; 0.5 nM, 24-h incubation, primary CD4+ T cells): […] | downmodulation of HLA-B*51:01 and HLA-B*07:02 ([4]; cells infected with ΔGPE): […] | EC50 ([4]; read-out: EC50 for Nef inhibition, HIV-infected primary CD4+ T cells, HLA-A2): […] | abundance of Nef and AP-1 subunits associating with HLA-A2 [5]: reproducible reduction in the abundance of Nef, AP-1μ, and AP-1μ1 subunits associating with HLA-A2 | viability ([6]; 0.5 nM, 24-h incubation): 95% | difference between the 50% effective and toxic concentrations (EC50 and TC50) ([6]; Nef activity 24 hours, viability 72 hours): […]
